Results taken from PubChem BioAssay (NCI).
Several values for one entry are separate records, joined by “and”; a condition that tells them apart may be missing. Equal values may be shown once.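 Following 48 hours of exposure in 96-well plates, responses at five concentrations were used to interpolate endpoints linearly. The concentration for 50% growth inhibition is given as GI50. TGI: total growth inhibition.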

Key:
Test in all cases: NCI-60 cell line screen, 48 h
ACHN renal = test system: ACHN renal
DMS 114 small cell lung = test system: DMS 114 small cell lung
HCC-2998 colon = test system: HCC-2998 colon
HOP-62 NSCLC = test system: HOP-62 NSCLC
HT29 colon = test system: HT29 colon
KM12 colon = test system: KM12 colon
OVCAR-4 ovarian = test system: OVCAR-4 ovarian
SR leukemia = test system: SR leukemia
UACC-257 melanoma = test system: UACC-257 melanoma
SNB-75 CNS = test system: SNB-75 CNS

SMILES	TGI (ACHN renal)	TGI (DMS 114 small cell lung)	TGI (HCC-2998 colon)	TGI (HOP-62 NSCLC)	TGI (HT29 colon)	TGI (KM12 colon)	TGI (OVCAR-4 ovarian)	TGI (SR leukemia)	TGI (UACC-257 melanoma)	GI50 (ACHN renal)	GI50 (DMS 114 small cell lung)	GI50 (HCC-2998 colon)	GI50 (HOP-62 NSCLC)	GI50 (HT29 colon)	GI50 (KM12 colon)	GI50 (OVCAR-4 ovarian)	GI50 (SNB-75 CNS)	TGI (SNB-75 CNS)	GI50 (SR leukemia)	GI50 (UACC-257 melanoma)
COC(=O)/C(=N/NC(C)(C)C)C(C(=O)C=C(C)C)C(=O)C(=O)Nc1ccc(Cl)cc1C (configuration not stated)	> 100 µM	> 100 µM	> 100 µM	> 100 µM	> 100 µM	> 100 µM	> 100 µM	> 100 µM	> 100 µM											
Nc1ccc2c(c1)[O][Sn]([c]1ccccc1)([c]1ccccc1)[O]C2=O	25.4 µM	18.7 µM	33.2 µM	34.9 µM	26.5 µM	33.5 µM	28.4 µM	> 30.4 µM	20 µM	11.9 µM	6.68 µM	17.8 µM	19.6 µM	12.1 µM	16.5 µM	12.9 µM	7.64 µM	18.9 µM	3.01 µM	8.14 µM
CCOC(OC1=C(C#N)CCC1)C(CC)[Se]c1ccccc1 (configuration not stated)	81.9 µM	10.4 µM	83.8 µM	> 100 µM	80.5 µM	> 100 µM	33.1 µM	31.1 µM	> 100 µM									64.2 µM		
O=c1oc2c3ccc4ccccc4c3n(Cc3nc4ccccc4[nH]3)c2c2ccccc12	> 100 µM	> 100 µM	> 100 µM	75.3 µM	> 63.4 µM	> 100 µM	> 100 µM	> 100 µM	> 90.6 µM									> 87.7 µM		
CC(=O)O/C(C)=C\C(=O)O/N=C(\N)c1ccc(C)cc1	> 100 µM	45 µM	> 100 µM	> 100 µM	> 100 µM	> 100 µM	64.5 µM	> 100 µM	> 100 µM									61 µM		
CC(SC1=CC(=O)c2c(O)ccc(O)c2C1=O)C(=O)O (configuration not stated)	> 64.1 µM	44 µM	> 100 µM	> 100 µM	> 100 µM	> 100 µM	35 µM	> 100 µM	> 66 µM									> 75.9 µM		
c1cncc(C2c3[nH]c4ccccc4c3CCN2CCN2CCCCC2)c1 (configuration not stated)	> 100 µM	> 100 µM	> 100 µM	> 100 µM	> 100 µM	> 100 µM	> 100 µM	> 100 µM	99.4 µM									> 100 µM		
CC1=C(N2CC2)C(=O)c2nc3n(c2C1=O)CCC3O (configuration not stated)	1.61 µM	2.68 µM	0.328 µM	0.516 µM	3.37 µM	0.699 µM	0.269 µM	35.6 µM	0.513 µM									1.23 µM		
Cc1ccc(C)c(NC(=O)/C(=N\NC(N)=S)C(C#N)c2ccccc2)c1 (configuration not stated)	> 100 µM	> 100 µM	> 100 µM	> 100 µM	> 100 µM	> 100 µM	> 100 µM	> 100 µM	> 100 µM									> 100 µM		
Cn1c2ccccc2n2c3nc4ccccc4nc3c(C#N)c12	> 100 µM	> 100 µM	> 79.1 µM	> 100 µM	> 100 µM	> 100 µM	> 100 µM	> 100 µM	> 100 µM									> 100 µM		
CCCN(CCC)c1c([N+](=O)[O-])cc(S(N)(=O)=O)cc1[N+](=O)[O-]	31.8 µM	40.3 µM	33.2 µM	32 µM	34 µM	34.3 µM	26.9 µM	57.4 µM	37.2 µM									32.4 µM		
COc1ccc(N=Cc2ccc(N(CCC#N)CCC#N)cc2)cc1	> 100 µM	> 100 µM	> 88.1 µM	> 100 µM	> 100 µM	> 100 µM	> 100 µM	> 100 µM	> 100 µM									> 100 µM		
[Cl][Sn]([c]1ccccc1)[c]1ccccc1	24.2 µM	19.4 µM	27.8 µM	40.7 µM	24.2 µM	18 µM	29.8 µM	17.5 µM	23.1 µM	11.9 µM	3.47 µM	14.1 µM	22.9 µM	9.99 µM	12.4 µM	15.2 µM	6.18 µM	19.4 µM	3.39 µM	8.25 µM
CCCCS(=N)(=O)CC[C@H](N)C(=O)O (some centres not stated)	> 10000 µM	> 5000 µM	> 10000 µM	> 10000 µM	> 10000 µM	> 10000 µM		5000 µM and > 10000 µM	> 10000 µM	> 10000 µM		> 10000 µM	> 7620 µM	> 10000 µM	> 10000 µM	13.4 µM	> 10000 µM	5000 µM and > 10000 µM	3980 µM	> 10000 µM
Cc1c(C(=O)CC(=O)C(=O)NC2C3CC4CC(C3)CC2C4)[n+](=O)c2ccccc2n1[O-] (configuration not stated)	> 100 µM	> 100 µM	> 100 µM	> 100 µM	> 100 µM	> 100 µM	> 100 µM	> 100 µM	> 100 µM									> 100 µM		
COC(=O)c1ccc(OCc2ccc3oc(=O)c(-c4ccccc4)nc3c2)cc1	> 100 µM	> 100 µM	> 100 µM	> 100 µM	> 100 µM	> 100 µM	> 100 µM	> 100 µM	> 100 µM									> 100 µM		
